pIC50: −log10 of the molar value. Each block holds one compound with its values, some of them ahead of it.
Key:
Pol η = target: T1, Pol η (Homo sapiens, UniProt Q9Y253); experiment: primer extension assay (Pol η); type: biochemical; conditions: 10 μM
T1 construct: purchased EnzyMax
T1 sequence (Q9Y253 1-713): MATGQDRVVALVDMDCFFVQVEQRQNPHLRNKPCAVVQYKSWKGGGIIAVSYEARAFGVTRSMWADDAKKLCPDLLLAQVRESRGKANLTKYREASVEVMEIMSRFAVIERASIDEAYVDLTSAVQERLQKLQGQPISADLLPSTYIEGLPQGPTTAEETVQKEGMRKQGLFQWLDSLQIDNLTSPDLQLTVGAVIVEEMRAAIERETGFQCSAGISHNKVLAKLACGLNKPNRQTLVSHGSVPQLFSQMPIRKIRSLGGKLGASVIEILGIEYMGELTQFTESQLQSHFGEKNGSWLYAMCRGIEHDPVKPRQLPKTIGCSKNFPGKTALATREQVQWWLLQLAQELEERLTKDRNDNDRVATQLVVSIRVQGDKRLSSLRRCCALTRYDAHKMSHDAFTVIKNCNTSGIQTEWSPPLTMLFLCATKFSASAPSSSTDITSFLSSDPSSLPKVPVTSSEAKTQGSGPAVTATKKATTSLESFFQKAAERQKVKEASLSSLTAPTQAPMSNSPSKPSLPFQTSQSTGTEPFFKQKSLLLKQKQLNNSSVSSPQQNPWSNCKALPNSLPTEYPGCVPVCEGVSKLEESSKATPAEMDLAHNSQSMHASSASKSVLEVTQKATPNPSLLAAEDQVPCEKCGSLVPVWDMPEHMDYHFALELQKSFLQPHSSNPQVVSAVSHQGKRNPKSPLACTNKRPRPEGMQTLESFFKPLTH
Method: (§1) A 10× working solution of 14 (5 or 100 μM) was prepared in 1:1 MeCN/H2O. A 10× preincubation mixture was prepared by mixing a 50× working solution of polymerase (250 nM) with an aliquot of the inhibitor (5 or 100 μM, 10×) in 1× reaction buffer (50 mM Tris·HCl, 50 mM NaCl, 5 mM MgCl2, 5 mM DTT, 0.1 mg/mL BSA, 10% glycerol, pH 7.5) (see Table 19 for volumes). The concentration of the preincubation mixture was 50 nM polymerase (10×) and 0, 0.5 or 10 μM 14 (1×).
(§2) The samples containing 50 nM polymerase and 14 (0, 0.5, or 10 μM) were preincubated at 25° C. for 20 min. After preincubation, an aliquot (2 μL, pol η or 3 μL, pol λ) was diluted with 10× ternary complex (pol η: 2 μL, 500 nM D4 or pol λ: 3 μL, 100 nM TC5), 10× dNTPs (5 mM; 2 μL, pol η or 3 μL, pol λ), and 1× reaction buffer (14 μL., pol η or 21 μL, pol λ) (see Table 20 for volumes). While the samples were incubated at 37° C., aliquots (pol η: 0, 2, 5, 10, 15, 20 min, 3 μL or pol λ: 0, 5, 15, 20, 30 min, 5 μL) were removed and quenched by the addition of 95% formamide, 20 mM EDTA loading buffer (10 μL). Aliquots were heated at 95° C. for 5 min, spun down, and loaded onto a 20% denaturing PAGE and run for 4 h at 55 watts. The gel was exposed in a radiography cassette, which was scanned using a Phosphorimager.

Pol λ = target: T2, Pol λ (Homo sapiens, UniProt Q9UGP5); experiment: primer extension assay (Pol λ); type: biochemical; conditions: 10 μM
T2 sequence (Q9UGP5 1-575): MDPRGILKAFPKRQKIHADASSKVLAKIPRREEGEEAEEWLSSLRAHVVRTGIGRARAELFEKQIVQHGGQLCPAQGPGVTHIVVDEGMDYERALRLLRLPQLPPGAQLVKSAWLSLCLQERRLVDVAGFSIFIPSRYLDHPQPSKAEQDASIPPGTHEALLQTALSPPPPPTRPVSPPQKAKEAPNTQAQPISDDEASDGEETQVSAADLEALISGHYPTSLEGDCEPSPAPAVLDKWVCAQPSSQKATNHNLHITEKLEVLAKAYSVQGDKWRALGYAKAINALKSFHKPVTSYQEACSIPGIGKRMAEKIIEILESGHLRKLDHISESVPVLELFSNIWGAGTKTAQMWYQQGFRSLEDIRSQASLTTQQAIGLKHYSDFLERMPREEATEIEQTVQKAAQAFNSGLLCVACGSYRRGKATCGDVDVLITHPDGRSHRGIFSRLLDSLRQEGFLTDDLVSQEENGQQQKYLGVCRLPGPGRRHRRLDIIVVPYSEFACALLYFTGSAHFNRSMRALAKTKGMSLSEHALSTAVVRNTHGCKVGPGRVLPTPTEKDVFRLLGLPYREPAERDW
Method: as §1, §2

UWB1.289+BRCA1 = experiment: clonogenic assay, BRCA1 complemented ovarian cancer cells; type: cell-based
MDA-MB-436 = experiment: clonogenic assay, BRCA1 deficient breast cancer cells; type: cell-based; conditions: 1 h
Method: (§3) The medium was removed, and the cells were resuspended in fresh media (10 mL). […] The excess dye was removed by washing with water twice.

UWB1.289 (BRCA1−/−) = experiment: clonogenic assay, BRCA1 deficient ovarian cancer cells; type: cell-based; conditions: 1 μM
Method: as §3
UWB1.289 cells (6×106) were seeded with RPMI 1640/MEGM medium (10 mL) into a 100 mm plate prior to transfection so cells would be adherent and ˜80% confluent on the first day of transfection, which was determined by manual inspection. Transfection was completed as follows: • 1. Lipofectamine RNAiMAX (60 μL) was diluted in Opti-MEM reduced serum medium to 1 mL. • 2. In a separate tube, siRNA (either siNT or siPol β, 10 μM, 60 μL, […]) was diluted in Opti-MEM (500 μL). • 3. The Lipofectamine solution was split (2×500 μL aliquots) and mixed with either siNT or siPol β solution to form the lipid-RNA complex at 25° C. for 5 min. • 4. The RPMI 1640/MEGM medium was removed and replaced with Opti-MEM medium (9 mL). After 5 min incubation, the lipid-RNA solution (1 mL) was added to the cells. Cells were incubated at 37° C. in a 5% CO2 humidified incubator. The following day, steps 1-3 were repeated. and the resulting 2×500 μL solutions were added to the existing cells that had been incubating at 37° C., 5% CO2 for 24 h. Transfected cells were allowed to incubate for an additional 48 h at 37° C., 5% CO2 after the second addition of siRNA. […]

MCF-7 = experiment: clonogenic assay, BRCA1 proficient breast cancer cells; type: cell-based; conditions: 1 h
Method: as §3

[1] = tested on: MEFs lacking Pol β (Pol β−/−); experiment: cell viability assay for MEFs lacking Pol β; type: cell-based, mouse; conditions: MMS alone
DNA polymerase β (Pol β) = DNA polymerase β (Pol β) (Homo sapiens, UniProt P06746); conditions: 30 min preincubation; Paul et al.; cited from earlier work

Pol η activity retained (Pol η): approximately 50%
Pol λ activity relative to untreated enzyme (Pol λ): more than 25%
Compound: O=C(NC1CC(n2cc(CNC(=O)c3cc4cc(Br)ccc4c(Br)c3O)c(=O)[nH]c2=O)OC1COP(=O)(O)OCC1CC(O)OC1O)c1cc(-c2ccc(Cl)cc2)oc1C(F)(F)F (stereo not drawn) [Compound 14]

Compound: O=C(c1cc(Cc2n[nH]c(=O)c3ccccc23)ccc1F)N1CCN(C(=O)C2CC2)CC1 [Olaparib]
toxicity (UWB1.289+BRCA1; 1 h treatment): modestly toxic
cytotoxicity upon prolonged treatment, compared with pro-1 (UWB1.289+BRCA1; time course): more cytotoxic
cell killing compared with pro-1 (MDA-MB-436): more effective at killing BRCA1−/− cells at a lower concentration
cytotoxicity as a function of treatment time (UWB1.289 (BRCA1−/−)): proportional to incubation time
toxicity compared with pro-1 (MCF-7): more toxic

Compound: COS(C)(=O)=O [MMS, methyl methanesulfonate]
toxicity compared with WT MEFs [1]: considerably more toxic

Compound: COc1cc(Cl)c(C=NOC2CC(n3cc(CNC(=O)c4cc5cccc(O)c5cc4O)c(=O)[nH]c3=O)OC2COP(=O)(O)OCC2CC(O)OC2O)c(Cl)c1O (stereo not drawn) [Compound 2]
pIC50 (DNA polymerase β (Pol β)): 6.40

From patent US20240376143A1, “SELECTION INHIBITION OF DNA POLYMERASE BETA BY A COVALENT INHIBITOR” (The Johns Hopkins University, priority 2021, published 2024)
